“Also recorded” adds a separate entry of the source.
Legend:
[1] = plasma kinetics of imidocarb in rats, tail vein injection; type: in vivo; conditions: 24 hours (FIG. 24)
Protocol: Plasma samples were taken at various time points and the amount of imidocarb in these samples was determined by measurements of their radio-activity.

[2] = tissue distribution of free imidocarb and microreservoir-borne imidocarb; type: in vivo, rats; conditions: 4 hours after injection
Source text: Various tissues, such as muscle, spleen, liver and kidney, were taken from the animals. These tissues were combusted in a Searle combustion apparatus and the resulting ^14 CO2 was collected and counted for radioactivity.

[3] = affinity for and efflux of estradiol undecanoate from vesicular and nonvesicular microreservoirs; type: physicochemical
Protocol: The resulting liquid was sonicated at 40° C. for 20 minutes under a nitrogen atmosphere and passed down a Sepharose 4B Column. […] The material in the void volume of the column consisted of the nonvesicular form, whereas the material in the internal volume consisted of the vesicular form.

[4] = cited from earlier work
P388 leukemia system = conditions: mouse; cited from earlier work
L1210 leukemia system = conditions: mouse; cited from earlier work
[5] = in vitro stability of microreservoirs and liposomes (optical density ratio A400/A600, thin layer chromatograms); type: physicochemical; conditions: after sonication and centrifugation
Protocol: Both of the suspensions were then spun at 100,000 g for one hour to remove any undispersed lipid.
Aliquots of 4 ml of each sample were then placed into stoppered curvettes and the samples were incubated at 37° C. At various points in time optical densities of the two solutions at 400 nm and 600 nm were determined. […] Since both structures initially had essentially the same molecular size, the ratio of A400/A600 is an indication of any increase in the particle size due to the breakdown of the structural organization of the liposome.

[6] = plasma kinetics of daunomycin in rats, intravenous
Protocol: A control sample of free daunomycin at the same concentration and in the same buffer was also prepared.
0.5 ml of blood was taken at various time points from each rat. The plasma was separated from the blood samples and assayed for daunomycin fusing fluorescence. The data thus obtained are plotted in FIG. 10 as a function of time after injection.

P388 tumor cells = conditions: 4 mg/kg ip daily for 5 days
Protocol: A number of mice were injected intraperitoneally with 1×10^6 P388 tumor cells. […] One group of mice, used as a control, received no drug in any form. Five mice were used for each protocol and two different dosage levels, 4 mg/kg and 2 mg/kg, were used.

[7] = within two minutes after administration; cited from earlier work
[8] = in vivo; cited from earlier work
[9] = binding of adriamycin to microreservoirs; type: physicochemical
Protocol: With this 2 mg (3.45 μmoles) of adriamycin was used. In the five samples, the amount of phosphatidic acid in the total lipid constituent was varied from zero to 25%. […] The aqueous suspensions were each sonicated at 52° C. for 15 minutes. Each sample was passed down through a 2.5×50 cm Sephadex G-50 gel column to separate free and bound adriamycin.
2875 μmoles of purified soybean phosphatidyl chloine (specific activity 2296 ^3 H dpm/μmole) 720 μmoles of soybean phosphatidic acid and 720 μmoles of cholesteryl oleate (specific activity of 3638 ^14 C dpm/μmole) were dissolved in choloroform and taken to dryness by pumping overnight against a vacuum. The resulting solid material was hydrated with 20 ml of 10 mM of trihydroxymethylamine (pH 9.1) and the liquid was sonicated at 52° C. under a nitrogen atmosphere for 15 minutes. The pH of the solution was lowered to 7.2 and then it was centrifuged for one hour at 100,000 g. 34.9 mg of adriamycin was added to the clear supernatant and it was then allowed to incubate for 30 minutes at room temperature. After this incubation, the ionic strength of the solution was increased to 0.154 M NaCl; and it was passed down a 4.3×37 cm G-50 Sephadex G-50 gel column using 0.154 M NaCl and 10 mM trihydroxymethylamine as the eluting solvent.

normal mice = experiment: toxicity of adriamycin in normal mice, survival; type: in vivo; conditions: 4 mg/kg ip daily for five days, six mice; listed as free adriamycin
Protocol: Two dosages levels of the drug were chosen--4 mg/kg and 2 mg/kg. In each case, six normal mice received the injections each day for five days and then they were observed thereafter to determine the number of survivors. The results are plotted in FIG. 16.

L1210 leukemic cells = experiment: chemotherapy of L1210 leukemic mice with adriamycin, survival; conditions: 4 mg/kg ip, days 1 through 5; day 24; listed as free adriamycin
Protocol: 72 normal mice were each innoculated with 10^6 L1210 leukemic cells by intraperitoneal injection on day zero. […] The drug in all cases was also given by intraperitoneal injection and the dosages were repeated daily on days 1 through 5. The dosage levels chosen were 4 mg/kg, 2 mg/kg, 1 mg/kg and 0.5 mg/kg.

With `O=C(Nc1cccc(C2=NCCN2)c1)Nc1cccc(C2=NCCN2)c1` [imidocarb] the “imidocarb in the bloodstream after 24 hours” value [1] was “virtually none”, the “tissue distribution, Kidney” value ([2]; kidney) was 40,194 dpm/gram of tissue and the “tissue distribution, Liver” value ([2]; liver) was 27,059 dpm/gram of tissue. For the same molecule, the “tissue distribution, Muscle” value ([2]; muscle) was 3,985 dpm/gram of tissue and the “tissue distribution, Spleen” value ([2]; spleen) was 9,498 dpm/gram of tissue.

In the case of `CCCCCCCCCCC(=O)O[C@H]1CC[C@H]2[C@@H]3CCc4cc(O)ccc4[C@H]3CC[C@]12C` [estradiol undecanoate], the “efflux / retention of estradiol undecanoate” value ([3]; incubated with unsonicated egg phosphatidyl choline dispersion) is listed as “remained associated with both forms of the microreservoirs”, the “affinity for vesicular vs nonvesicular microreservoirs” value ([3]; ratio of estradiol undecanoate to cholesteryl oleate) is listed as “higher affinity for the vesicular form of the microreservoirs than for the nonvesicular form” and the “solubility in aqueous buffer / water” value [4] is listed as “essentially insoluble in water”.

For `CCCCC(=O)OCC(=O)C1(O)Cc2c(O)c3c(c(O)c2C(OC2CC(NC(=O)C(F)(F)F)C(O)C(C)O2)C1)C(=O)c1c(OC)cccc1C3=O` (stereo not drawn) [AD 32, N-Trifluoroacetyladriamycin-14-Valerate], the “solubility in aqueous buffer / water” value [4] is given as “totally insoluble in an aqueous buffer”, the antitumor activity (P388 leukemia system) is given as “significantly greater antitumor activity than adriamycin or daunomycin” and the antitumor activity (L1210 leukemia system) is given as “significantly greater antitumor activity than adriamycin or daunomycin”.

For `COc1cccc2c1C(=O)c1c(O)c3c(c(O)c1C2=O)C[C@@](O)(C(C)=O)C[C@@H]3O[C@H]1C[C@H](N)[C@H](O)[C@H](C)O1` [daunomycin], the “degradation by thin layer chromatograms of the centrifugates” value [5] was “no evidence of degradation”, the “presence in the bloodstream after 3 3/4 hours” value ([6]; printed "33/4 hours", 4 mg/kg iv) was “virtually absent from the bloodstream” and the concentration at 0.25 h ([6]; rat, in vivo, iv, 4 mg/kg) was about 400 ng/mL. It also gave a concentration at 1 h ([6]; rat, in vivo, iv, 10 mg/kg) of about 500 ng/mL, a concentration at 3 h ([6]; rat, in vivo, iv, 10 mg/kg) of about 300 ng/mL and a concentration at 6 h ([6]; rat, in vivo, iv, 10 mg/kg) of about 140 ng/mL. For the same molecule, the “chemotherapeutic effect / toxicity (survivors)” value (P388 tumor cells) was “demonstrated a toxicity measurably greater than the tumor cells”, the “fraction left to reach the target tissue” value [7] was about 5% and the “fraction that has left the bloodstream within two minutes” value [7] was “about 95%”. The toxicity [8] was “known to be toxic, particularly since it tends to concentrate in the heart tissues”.

For `COc1cccc2c1C(=O)c1c(O)c3c(c(O)c1C2=O)C[C@@](O)(C(=O)CO)C[C@@H]3O[C@H]1C[C@H](N)[C@H](O)[C@H](C)O1` [adriamycin], the “binding of adriamycin to the microreservoirs relative to daunomycin” value [9] was “does not bind as strongly to the microreservoirs as does, for example, daunomycin”, the “bound adriamycin vs amount of phosphatidic acid” value ([9]; 80 μmoles total phospholipid, 20 μmoles cholesteryl oleate, 2 mg adriamycin, pH 7.2) was “increases with increasing amounts of phosphatidic acid” and the “phosphatidic acid content up to which bound adriamycin increases before levelling off” value ([9]; relative to total lipids) was “about 25 mole %”. The “toxicity (survival at 30 days)” value (normal mice) was “highly toxic; also recorded: survival of only one mouse”, the “solubility in aqueous buffer / water” value [4] was “water soluble” and the “therapeutic effect / survivors” value (L1210 leukemic cells) was “some therapeutic effect for a short period of time; also recorded: all of the control mice and those receiving the free adriamycin had succumbed to leukemia and/or the toxic effect of the drug”.
